What all share (assay): NCI tumour cell line growth inhibition, 48 h
In test [1] the test system is CCRF-CEM leukemia.
In test [2] the test system is DU-145 prostate.
The test system of test [3] is EKVX NSCLC.
The test system of test [4] is HCC-2998 colon.
In test [5] the test system is KM12 colon.
The test system of test [6] is MDA-MB-231 breast.
Test [7] has as its system NCI-H460 lung.
The subject of test [8] is NCI-H522 lung.
Test [9] has as its system NCI/ADR-RES ovarian.
For test [10], the system named is SK-MEL-28 melanoma.
Test [11] deals with SK-OV-3 ovarian.
Test [12] deals with SNB-75 CNS.
Test [13] has as its system U251 CNS.
The subject of test [14] is HL-60(TB) leukemia.
Test [15] deals with HOP-92 NSCLC.
The test system of test [16] is NCI-H23 lung.

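Interpolation was linear, between the two tested concentrations surrounding the appropriate level; five concentrations were tested over 48 hours in 96-well plates. Definition used: TGI = concentration required for complete inhibition of growth.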

Take `O=C1c2ccccc2-n2nnnc2C2CSCN12` (configuration not stated): the TGI in test [1], in test [2], in test [3], in [4], in test [5] and in test [6] was over 100 µM in each case. In addition, the TGI in test [7], in test [8], in [9], in [10], in [11] and in test [12] was over 100 µM in each case. The TGI in [13] is over 100 µM.

`O=S(=O)(O)c1cc(N=Nc2c(O)ccc3ccccc23)cc2c(S(=O)(=O)O)cccc12`: the TGI in test [1], in test [3], in [4], in test [14], in test [15] and in [5] was over 100 µM throughout. Also, the TGI in test [6], in [7], in [8], in [9], in test [10] and in test [11] was over 100 µM each time. The TGI in test [12] and in [13] was over 100 µM in each case.

With `COc1cc2c(/C=C3/C(=O)Nc4cccc(Cl)c43)c(Cl)[nH]c2cc1C`, the TGI in [1] was found to be 3.3 µM; in test [2], 5.66 µM; in test [14], 4.56 µM; in test [15], 22.6 µM; in test [5], 3.72 µM; in test [6] it was 3.2 µM. Besides, the TGI in [16] came to 9.36 µM; in [7], 3.78 µM; in test [8] it was 6.74 µM; in test [9], 3.45 µM; in test [10], 4.27 µM; in [11], 5.67 µM. For the same molecule, the TGI in [12] is 4.03 µM; in [13], 3.99 µM.

Regarding `Cc1cn(C2OC(CO[Si](C)(C)C(C)(C)C)C(N(C)O[Si](C)(C)C(C)(C)C)C2[Se]c2ccccc2)c(=O)[nH]c1=O` (configuration not stated), the TGI in test [1] is over 100 µM; in [2], 79 µM; in [4] it was 0.491 µM; in test [14] it was over 100 µM; in test [15], 10.9 µM; in [5] it was 16.2 µM. Moreover, the TGI in test [6] is 43.8 µM; in [16], 24.6 µM; in [8], 11.6 µM; in test [9], 58 µM; in [10], 22.2 µM; in [11], over 100 µM. The TGI in test [12] is 21.4 µM; in [13], 24.5 µM.

As for `Cc1ccc(Nc2nc(NNC(=O)Cc3ccccc3)nc(NNC(=O)c3ccncc3)n2)cc1`, the TGI in [1], in test [2], in test [3], in [4], in test [14] and in test [15] was over 10 µM each time. Also, the TGI in test [5], in [6], in [16], in test [7], in [9] and in test [10] was over 10 µM in each case. The TGI in test [11], in test [12] and in test [13] was over 10 µM each time.

Consider `C=C1C(=O)O[C@@H]2/C=C(C)/C=C\[C@@H]3O[C@@]3(C)C[C@@H](O)C12` (some centres not stated), for which the TGI in test [1] was found to be 4.93 µM; in [2], 14.5 µM; in [3], 20.2 µM; in [4] it was 33.1 µM; in test [14] it was 8.93 µM; in test [15], 20.4 µM. For the same molecule, the TGI in test [5] turned out to be 31.8 µM; in test [16], 33.3 µM; in test [7], 73.3 µM; in [8] it was 19.6 µM; in [9] it was 33.4 µM; in test [10], 35.8 µM. Further, the TGI in test [11] was over 100 µM; in test [12] it was over 100 µM; in [13], 34.6 µM.

`N#Cc1nc(-c2cnccn2)oc1N`: the TGI in [1], in test [2], in test [3], in test [14], in test [15] and in test [5] was over 100 µM in each case. The TGI in test [6], in [10], in test [11], in [12] and in [13] was over 100 µM each time.

For `COc1ccc(C(C)NNC(=O)c2ccncc2)cc1OC` (configuration not stated), the TGI in [1], in [2], in test [3], in [4], in test [14] and in test [15] was over 100 µM throughout. Further, the TGI in test [5], in test [6], in test [16], in test [7], in [9] and in [10] was over 100 µM in each case. For the same molecule, the TGI in test [11], in [12] and in test [13] was over 100 µM each time.

For `CC1(C)[C@@H](Cn2cc(I)c(=O)[nH]c2=O)CC[C@@]1(C)CO`, the TGI in test [1], in [2], in test [3], in test [4], in test [15] and in [5] was over 100 µM each time. Moreover, the TGI in test [6], in test [9], in [10], in [11], in [12] and in test [13] was over 100 µM in each case.

On to `C(=C/CCCN1O[C@@H](CCCCCCCCc2cccnc2)[C@H]2CCC[C@H]21)/CCCCCCCCCc1cccnc1`, for which the TGI is 41.3 µM in [1]; over 100 µM in [2]; 13.9 µM in test [3]; 23 µM in test [14]; 28.1 µM in [15]; 58.7 µM in [5]. In addition, the TGI stood at 36.9 µM in [6]; 61.7 µM in [16]; 39.2 µM in test [7]; 88.5 µM in test [9]; 48.7 µM in [10]; 47.2 µM in test [11]. Besides, the TGI in [12] is 51.4 µM; in test [13], 34.5 µM.

As to `CCOC(=O)c1nnn(CCCCO)c1C(=O)OCC`, the TGI in test [1], in [2], in test [3], in test [4], in test [15] and in test [5] was over 100 µM each time. Further, the TGI in test [6], in [16], in test [7], in test [9], in test [10] and in test [12] was over 100 µM in each case. In [13], this molecule yielded a TGI of over 100 µM.

Consider `COc1cc(S(=O)(=O)Nc2ccc(-c3csc(N4C(=O)CSC4c4cccc(Oc5ccccc5)c4)n3)cc2)ccc1Cl` (configuration not stated), for which the TGI in test [1] is over 100 µM; in test [2], over 100 µM; in test [3], over 100 µM; in test [14], 48.9 µM; in [15], over 100 µM; in test [5], over 100 µM. Further, the TGI in test [16] is over 100 µM; in test [8] it was over 100 µM; in test [9], over 100 µM; in test [10], 87.7 µM; in test [11] it was over 100 µM; in test [12], over 100 µM.

Turning to `CC1=NN(c2nc(N)nc(COc3ccc(N)cc3)n2)C(C)(C)C1`, the TGI in test [1], in [2], in [3], in test [4], in test [14] and in [15] was over 100 µM each time. Moreover, the TGI in [5], in [6], in [16], in [7], in test [9] and in test [10] was over 100 µM each time. The TGI in [11], in test [12] and in test [13] was over 100 µM throughout.

For the molecule `Cc1nn(C(=O)Cc2ccccc2)c2c1C(c1ccccc1)SC(N)=N2` (configuration not stated), the TGI in test [1], in test [2], in [3], in test [4], in [14] and in [5] was over 100 µM each time. Besides, the TGI in [6], in [16], in test [7], in [8], in [10] and in test [11] was over 100 µM throughout. The molecule also came in with a TGI in test [12] of over 100 µM.

As for `CC(C)C(NC(=O)Oc1ccccc1)C(=O)NC1c2c(Br)sc(Br)c2C(=O)C1O` (configuration not stated), the TGI in [1] is 15.6 µM; in test [2], over 25 µM; in [3], 15.2 µM; in [4], 7.68 µM; in test [14] it was over 25 µM; in [5] it was over 25 µM. The TGI in test [6] is 9.41 µM; in test [16], 8.41 µM; in test [7], 8.64 µM; in [9], 16.5 µM; in test [10] it was 8.67 µM; in test [11] it was over 25 µM. In addition, the TGI in [12] is over 25 µM; in test [13], 9.53 µM.

For `C/C(=N\NC(N)=S)c1ccc2c(c1)Sc1ccccc1O2`, the TGI in [1] is over 100 µM; in [2] it was over 100 µM; in test [3], 13.6 µM; in test [4] it was 4.65 µM; in [14], over 100 µM; in test [15], 28 µM. In addition, the TGI in [5] is over 100 µM; in test [6], over 100 µM; in test [16], 79.1 µM; in test [7], 11.8 µM; in test [9], 10.6 µM; in test [10] it was 69.9 µM. Also, the TGI in test [11] came out at 39.5 µM; in test [12] it was 7.21 µM; in [13], 11.7 µM.

Consider `CCOC(=O)C(=[N+]=[N-])C(=O)CN1C(=O)c2ccccc2C1=O`, for which the TGI in test [2], in [3], in test [4], in test [15], in test [6] and in test [16] was over 100 µM in each case. Further, the TGI in test [7], in [8], in test [10], in test [11], in test [12] and in [13] was over 100 µM in each case.

Regarding `COc1cc(OCCN(C)C)c2[nH]c(C(=O)N3CC(CCl)c4ccc(N)cc43)cc2c1` (configuration not stated), the TGI in test [1] stood at 0.0684 µM; in test [2] it was 1.02 µM; in test [3] it was 1.37 µM; in test [4], 0.297 µM; in test [15] it was 0.617 µM; in [5], 0.126 µM. The TGI came out at 9.37 µM in [6]; 0.316 µM in test [16]; 1 µM in test [9]; 32 µM in test [11]; 0.565 µM in test [12]; 3.32 µM in test [13].

Turning to `COc1cccc(-c2cc(=O)c3cc(N4CCCCC4)ccc3[nH]2)c1`, the TGI in [1] is over 100 µM; in test [2], over 100 µM; in test [3], over 100 µM; in test [15], over 100 µM; in [5] it was 0.783 µM; in test [6], over 100 µM. In addition, the TGI in test [16] is over 20.4 µM; in [8], over 21 µM; in [10] it was over 100 µM; in test [11], over 100 µM; in test [13], over 85.9 µM.

Consider `Cc1cc(OC(=O)Nc2cccc3ccccc23)c(C(C)C)cc1C(=S)Nc1ccccc1`, for which the TGI in [1] was found to be 27.5 µM; in [2], 82 µM; in test [3] it was 61.6 µM; in test [4], 38.8 µM; in test [14] it was 15.1 µM; in [5], 36.4 µM. Also, the TGI turned out to be 34.3 µM in [16]; 47.1 µM in test [7]; 29.1 µM in test [8]; 52.1 µM in test [9]; 35.3 µM in test [10]; 51.7 µM in test [11]. For the same molecule, the TGI in test [13] turned out to be 35.4 µM.

(Values after PubChem BioAssay (NCI).)
